Assay results from patent US5849735A, “Tricyclic benzazepine vasopressin antagonists” (American Cyanamid Company, priority 1995, dated 1998).

Test system: vasopressin V2
Assay: Vasopressin Antidiuretic (V2) Response in Conscious Rats with Free Access to Water Drinking Before But Not During the Experiment
Type: in vivo, rat (Sprague-Dawley)
Conditions: N=2
Source text: Vasopressin Antidiuretic (V2) Response in Conscious Rats with Free Access to Water Drinking Before But Not During the Experiment Male or female normotensive Sprague-Dawley rats (Charles River Laboratories, Inc., Kingston, N.Y.) of 400-450 g of body weight were supplied with Laboratory Rodent Feed #5001 (PMI Feeds, Inc., Richmond, Ind.) and water ad libitum. On the day of test, rats were placed individually into metabolic cages equipped with stainless steel screens (to separate the feces from the urine) and funnels for collection of urine. Compounds, vehicle, or reference agent was given at various oral doses. During the test, rats were provided with no water or food. After dosing, urine was collected in graduated cylinders for four hours. Urine volume was measured. Urinary osmolality was determined using a Fiske One-Ten Osmometer (Fiske Associates, Norwood, Mass. 02062). An aliquot of each urine collection was analyzed for Na^+,K^+ and Cl^- using ion specific electrodes a in Beckman E3 (Electrolyte 3) analyzer. The vehicle used for testing compounds was 20% dimethylsulfoxide (DMSO) in 2.5% preboiled starch. Compounds were dissolved in DMSO and then diluted in 2.5% corn starch (final concentration of DMSO was 20%). All rats were orally dosed with this mixture at […], by gavage.

Structure (SMILES): O=C(Nc1ccc(C(=O)N2Cc3ccccc3Oc3ccccc32)c(Cl)c1)c1ccccc1-c1ccccc1 [Example 47, N-[4-(Dibenz[b,f][1,4]oxazepin-10(11H)-ylcarbonyl)-3-chlorophenyl][1,1'biphenyl]-2-carboxamide]
- Osmolality (oral 10 mg/kg): 394 MOsm/kg
- Urine Volume (oral 10 mg/kg): 22.0 ml/4 hrs

Structure (SMILES): O=C(Nc1ccc(C(=O)N2Cc3cccnc3Oc3ccccc32)cn1)c1ccccc1-c1ccccc1 [Example 66, N-[5-(Pyrido[2,3-b][1,5]benzoxazepin-6(5H)-ylcarbonyl)-2-pyridinyl][1,1'biphenyl]-2-carboxamide]
- Osmolality (oral 10 mg/kg): 442 MOsm/kg
- Urine Volume (oral 10 mg/kg): 17.0 ml/4 hrs

Structure (SMILES): O=C(Nc1ccc(C(=O)N2Cc3cccnc3Oc3ccccc32)c(Cl)c1)c1ccccc1-c1ccccc1 [Example 67, N-[4-(Pyrido[2,3-b][1,5]benzoxazepin-6(5H)-ylcarbonyl)-3-chlorophenyl][1,1'-biphenyl]-2-carboxamide]
- Osmolality (oral 10 mg/kg): 402 MOsm/kg
- Urine Volume (oral 10 mg/kg): 21.5 ml/4 hrs

Structure (SMILES): O=C(Nc1ccc(C(=O)N2Cc3cccnc3Nc3ccccc32)cc1)c1ccccc1-c1ccccc1 [Example 133, N-[4-(6,11-Dihydropyrido[2,3-b][1,5]benzodiazepin-6(5H)-ylcarbonyl)-phenyl][1.1'-biphenyl]-2-carboxamide]
- Osmolality (oral 10 mg/kg): 234 MOsm/kg
- Urine Volume (oral 10 mg/kg): 27.5 ml/4 hrs

Structure (SMILES): O=C(Nc1ccc(C(=O)N2Cc3cccnc3Nc3ccccc32)c(Cl)c1)c1ccccc1-c1ccccc1 [Example 134, N-[4-(6,11-Dihydropyrido[2,3-b][1,5]benzodiazepin-6(5H)-ylcarbonyl)-3-chlorophenyl][1,1'-biphenyl]-2-carboxamide]
- Osmolality (oral 1 mg/kg): 596 MOsm/kg
- Urine Volume (oral 1 mg/kg): 18.2 ml/4 hrs
- Osmolality (oral 3 mg/kg): 396 MOsm/kg
- Urine Volume (oral 3 mg/kg): 28 ml/4 hrs
- Osmolality (oral 10 mg/kg): 333 MOsm/kg
- Urine Volume (oral 10 mg/kg): 40.5 ml/4 hrs

Structure (SMILES): Cl.O=C(Nc1ccc(C(=O)N2Cc3cccnc3Nc3ccccc32)cc1)c1ccccc1-c1ccccc1 [Example 135, N-[4-(6,11-Dihydropyrido[2,3-b][1,5]benzodiazepin-6(5H)-ylcarbonyl)-phenyl][1,1'-biphenyl]-2-carboxamide, hydrochloride]
- Osmolality (oral 1 mg/kg): 526 MOsm/kg
- Urine Volume (oral 1 mg/kg): 19.5 ml/4 hrs
- Osmolality (oral 3 mg/kg): 391 MOsm/kg
- Urine Volume (oral 3 mg/kg): 26.8 ml/4 hrs
- Osmolality (oral 10 mg/kg): 284 MOsm/kg
- Urine Volume (oral 10 mg/kg): 39.5 ml/4 hrs

Structure (SMILES): O=C(Nc1ccc(C(=O)N2Cc3cccnc3Nc3ccccc32)cn1)c1ccccc1-c1ccccc1 [Example 176, N-[5-(6,11-Dihydropyrido[2,3-b][1,5]benzodiazepin-6(5H)-ylcarbonyl)-2-pyridinyl][1,1'-biphenyl]-2-carboxamide]
- Osmolality (oral 10 mg/kg): 567 MOsm/kg
- Urine Volume (oral 10 mg/kg): 12.8 ml/4 hrs

Structure (SMILES): O=C(Nc1ccc(C(=O)N2Cc3ccccc3Nc3ccccc32)c(Cl)c1)c1ccccc1-c1ccccc1 [Example 218, N-[4-[(5,11-Dihydro-10H-dibenz[b,e][1,4]diazepin-10-yl)carbonyl]-3-chlorophenyl][1,1'-biphenyl]-2-carboxamide]
- Osmolality (oral 10 mg/kg): 222 MOsm/kg
- Urine Volume (oral 10 mg/kg): 34 ml/4 hrs

Structure (SMILES): O=C(Nc1ccc(C(=O)N2Cc3ccccc3Nc3ccccc32)cn1)c1ccccc1-c1ccccc1 [Example 257, N-[5-[(5,11-Dihydro-10H-dibenz[b,e][1,4]diazepin-10-yl)carbonyl]-2-pyridinyl][1,1'-biphenyl]-2-carboxamide]
- Osmolality (oral 10 mg/kg): 317 MOsm/kg
- Urine Volume (oral 10 mg/kg): 22.5 ml/4 hrs

Structure (SMILES): O=C(Nc1ccc(C(=O)N2Cc3ccccc3Cc3ccccc32)cc1)c1ccccc1-c1ccccc1 [Example 301, N-[4-[(6,11-Dihydro-5H-dibenz[b,e]azepin-5-yl)carbonyl]-phenyl][1,1'-biphenyl]-2-carboxamide]
- Osmolality (oral 10 mg/kg): 363 MOsm/kg
- Urine Volume (oral 10 mg/kg): 41.5 ml/4 hrs

Structure (SMILES): O=C(Nc1ccc(C(=O)N2Cc3ccccc3Cc3ccccc32)c(Cl)c1)c1ccccc1-c1ccccc1 [Example 302, N-[4-[(6,11-Dihydro-5H-dibenz[b,e]azepin-5-yl)carbonyl]-3-chlorophenyl][1,1'-biphenyl]-2-carboxamide]
- Osmolality (oral 10 mg/kg): 356 MOsm/kg
- Urine Volume (oral 10 mg/kg): 40 ml/4 hrs

Structure (SMILES): Cc1ccc(F)cc1C(=O)Nc1ccc(C(=O)N2Cc3ccccc3Nc3ncccc32)cn1 [Example 352, N-[5-[(6,11-Dihydro-5H-pyrido[2,3-b][1,4]benzodiazepin-5-yl)carbonyl]-2-pyridinyl]-5-fluoro-2-methylbenzamide]
- Osmolality (oral 10 mg/kg): 779 MOsm/kg
- Urine Volume (oral 10 mg/kg): 9.3 ml/4 hrs

Structure (SMILES): O=C(Nc1ccc(C(=O)N2CCc3cn[nH]c3-c3ccccc32)cc1)c1ccccc1-c1ccccc1 [Example 396]
- Osmolality (oral 10 mg/kg): 238 MOsm/kg
- Urine Volume (oral 10 mg/kg): 21.8 ml/4 hrs

Structure (SMILES): O=C(Nc1ccc(C(=O)N2CCc3cn[nH]c3-c3ccccc32)c(Cl)c1)c1ccccc1-c1ccccc1 [Example 397]
- Osmolality (oral 10 mg/kg): 288 MOsm/kg
- Urine Volume (oral 10 mg/kg): 29.8 ml/4 hrs

Structure (SMILES): O=C(Nc1ccc(C(=O)N2CCc3cn[nH]c3-c3ccccc32)cn1)c1ccccc1-c1ccccc1 [Example 398, N-[5-[(4,5-Dihydropyrazolo[4,3-d][1]benzazepin-6(1H)-yl)carbonyl]-2-pyridinyl][1,1'-biphenyl]-2-carboxamide]
- Osmolality (oral 10 mg/kg): 316 MOsm/kg
- Urine Volume (oral 10 mg/kg): 20.5 ml/4 hrs

Structure (SMILES): Cc1ccc(F)cc1C(=O)Nc1ccc(C(=O)N2CCc3cn[nH]c3-c3ccccc32)cn1 [Example 399, N-[5-[(4,5-Dihydropyrazolo[4,3-d][1]benzazepin-6(1H)-yl)carbonyl]-2-pyridinyl]-5-fluoro-2-methylbenzamide]
- Osmolality (oral 10 mg/kg): 404 MOsm/kg
- Urine Volume (oral 10 mg/kg): 17.0 ml/4 hrs

Structure (SMILES): Cc1ccc(F)cc1C(=O)Nc1ccc(C(=O)N2Cc3cscc3Nc3ccccc32)cn1 [Example 400]
- Osmolality (oral 10 mg/kg): 270 MOsm/kg
- Urine Volume (oral 10 mg/kg): 24.8 ml/4 hrs

Structure (SMILES): O=C(c1ccc(-c2cccs2)cc1)N1Cc2ccccc2Nc2ccccc21 [Example 404, 5,11-Dihydro-10-[4-(2-thienyl)benzoyl]-10H-dibenz[b,e][1,4]diazepine]
- Osmolality (oral 10 mg/kg): 909 MOsm/kg
- Urine Volume (oral 10 mg/kg): 6 ml/4 hrs
